The values that follow are results of earlier work, collected in patent US10543174B2, “Modified release tablet composition comprising mirabegron” (SYNTHON B.V., priority 2016, dated 2020).

The conditions of data set [1]: presence of food in the GI tract.

Regarding `Nc1nc(CC(=O)Nc2ccc(CCNC[C@H](O)c3ccccc3)cc2)cs1` [Mirabegron, (R)-2-(2-aminothiazol-4-yl)-4′-[2-[(2-hydroxy-2-phenylethyl)amino]ethyl]acetic acid anilide], the solubility entry (BCS) is given as “high solubility”. For the same compound, the solubility in water result (between neutral to acidic pH, EMA assessment report of Betmiga) was “soluble”. In data set [1], the “bioavailability, food effect” value is given as “affected by the presence of food”.
